Data set [1] is described as follows: Pharmacokinetic evaluation on mice, intravenous administration (Test Example 6). To be noted: male CD-1 mice, IV 2 mg/kg. The format is in vivo. How it is done: (§1) Experimental objective: male CD-1 mice were chosen as tested animals, and the LC-MS-MS method was employed to measure the concentrations of a tested compound in blood plasma of a mouse intravenously and intragastrically administrated with the tested compound at different times. The pharmacokinetic behaviors of tested compounds in mice were studied, and the pharmacokinetic characteristics thereof were evaluated.
(§2) Experimental scheme: experimental animals: 18 healthy adult male CD-1 mice (6 to 8 weeks old, and body weight about 30 g) were divided into 6 groups according to the principle of similar body weights: 3 mice in each of IV groups (3 groups), and 3 mice in each of PO groups (3 groups). The animals were purchased from Shanghai Jihui Laboratory Animal Care Co., Ltd.
(§3) Formulation: IV group: taking 10 mL of sample solution for example, 4 mg of sample was weighed, orderly added with 0.5 mL of DMSO and […], then added with […] of HP-p-CD, finally added with water to a constant volume of 10 mL, and stirred and subjected to ultrasonic irradiation, thereby obtaining a 0.4 mg/mL clear solution. PO group: an appropriate amount of sample was weighed, orderly added with appropriate amounts of Labrasol and water in a volume ratio of 10:40, and stirred and subjected to ultrasonic irradiation, thereby obtaining a 1.5 mg/mL uniform solution.
(§4) Administration: after being deprived of food for one night, the IV groups were intravenously administrated with the formulated solutions, respectively, with an injection volume of 5 mL/kg and a dosage of 2 mg/kg. The PO groups were intragastrically administrated with the formulated solutions, respectively, with an injection volume of […] and a dosage of 15 mg/kg.
(§5) Experimental operations: after the intravenous injection groups and the intragastric administration groups of the male CD-1 mice were administrated with the tested compounds, 110 ul of blood was sampled at the following time points: 0.0833, 0.25, 0.5, 1, 2, 4, 6, 8, and 24 hours. The sampled blood was placed into an anticoagulant tube which was added with K2EDTA in advance and preserved in dry ice. The tube was centrifuged for 15 minutes to separate blood plasma, and the separated blood plasma was preserved at −70° C. The animals were allowed to be fed after 4 hours of administration. The LC-MS-MS method was employed to measure the concentration of the tested compounds in the blood plasma after the intravenous and intragastric administration to the mice. The linear range of the method was 1-3000 ng/ml. The blood plasma samples were analyzed after protein precipitation with ACN.

Data set [2] is described as follows: Pharmacokinetic evaluation on mice, intragastric (PO) administration (Test Example 6). The format is in vivo. To be noted: PO 15 mg/kg, male CD-1 mice. How it is done:
as §1, §2, §3, §4, §5

The subject of data set [3] is subcutaneous xenograft tumor model of MIA PaCa-2. Description: In vivo pharmacodynamic experiment, tumor growth inhibition (Test Example 5). Set-up: species or system BALB/c nude mice. The conditions noted are these: p.o., QD; for TGI: day 14. How it is done:
Experimental objective: to evaluate the in vivo pharmaceutical effects of tested compounds on the subcutaneous xenograft tumor model of MIA PaCa-2.
Experimental operation: 6 to 8 weeks old female BALB/c nude mice each having the body weight of 18-20 g were chosen. MIA PaCa-2 cells were cultured in DMEM containing 10% FBS, 2.5% HS and 1% penicillin-streptomycin at 37° C. in an incubator with 5% CO2. Cells were collected. The MIA PaCa-2 cells were subcutaneously inoculated to the animals at their backs on the right, 2.0×10^6 cells (0.1 mL) for each animal. When tumor grew to 190-311 mm^3, mice with tumor having a suitable size were chosen and treated in groups, with administration dosages shown in Table 5 below. The animals were weighed on an electronic balance each day. The tumor volume was investigated by using a vernier caliper twice a week. The tumor volume was calculated by the following equation: V=0.5 a×b^2, a and b representing the long diameter and the short diameter of the tumor, respectively. The tumor volume was used to calculate a tumor growth inhibition rate (TGI), and the TGI shown in the form of a percentage was used to indicate the antineoplastic activity of a compound. The TGI was calculated by the following equation: TGI (%)=[1−avTi−0/avCi−0)]×100, with avTi−0 representing the average tumor volume of the group administrated with the compound on a specific day minus the average tumor volume of this group on the day of grouping, and avCi−0 representing the average tumor volume of the solvent control group on a specific day minus the average tumor volume of the solvent control group on the day of grouping. The tumor volume was shown in the form of an average value±standard error of mean (SEM).

Data set [4] concerns phosphorylated ERK in MIA PaCa2 cells with Kras G12C mutation. In words: p-ERK HTRF assay for cells (Test Example 2). The format is cell-based, human. To be noted: MIA PaCa2 cells, 2 hours with compound, read-out: p-ERK IC50. The gist of the method: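 MIA PaCa2 cells (2.5E4/well, seeded overnight) treated 2 h with compound in a 3.16-fold series at 0.1% DMSO. Cells lysed 30 min; p-ERK read by HTRF after 4 h antibody incubation. Inhibition relative to DMSO and blank; IC50 by four-parameter fit.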

For data set [5], the system named is MIA PaCa-2 cells with Kras G12C mutation. In words: Cell proliferation inhibition experiment, 3D spheroid, CellTiter-Glo (Test Example 3). To be noted: 5 days, read-out: MIA-PaCa2 IC50. The format is cell-based, human. The gist of the method:
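MIA PaCa-2 spheroids (200 cells/well) were formed overnight, then exposed for 5 days to compounds in 3.16-fold dilutions at 0.1% DMSO. Viability was read by CellTiter-Glo luminescence, and inhibition was normalised to DMSO control and medium blank. IC50 came from a four-parameter fit.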
In general terms: In ATP-based viability assays light output follows the ATP content of the culture.

The target of data set [6] is KRas G12C (Homo sapiens (Human), UniProt P01116, G12C). In words: Nucleotide exchange assay (NEA)-HTRF, SOS1 catalyzed displacement of GDP by GTP (Test Example 4). The format is biochemical. How it is done:
The effects of compounds on SOS1 catalyzed displacement of GDP by GTP on KRas proteins was examined by homogeneous time-resolved fluorescence (HTRF). 30 μM 6×his labeled KRas G12C recombinant protein and 80 μM fluorochrome DY647 labeled GDP were co-incubated in a labeling buffer (1 mM DTT, 7.5 mM EDTA, 25 mM Tris-HCl, 45 mM NaCl) at 20° C. away from light for 2 hours. Protein quantification was performed after purification on the NAP-5 column to determine the concentration of KRas G12C-GDP.
1000× stock solutions of compounds at a concentration gradient of 3.16 were prepared by using DMSO, and diluted 250 times by a reaction buffer (40 mM N-2-hydroxyethylpiperazine-N-2-ethane sulfonic acid (HEPES), 10 mM MgCl2, 1 mM DTT, 0.002% Triton X-100) into 4× stock solutions of compounds. KRas G12C-GDP/Tb working solution (40 nM KRas G12C-GDP, 1×anti-his Tb) and SOS1/GTP working solution (0.2 μM SOS1, 200 μM GTP) were prepared by using the reaction buffer.
5 μl of 4×stock solution of a compound and 10 μl of KRas G12C-GDP/T working solution were added to each well of 96-well plate with white unclear bottom, and 5 μl of reaction buffer was added to the well of control group in stead of the 4×stock solution of a compound. After incubation at 20° C. away from light for 15 minutes, 5 μl of SOS1/GTP working solution was added and incubated at 20° C. away from light for 2 hours, and then a value of fluorescence intensity was read (excitation wavelength: 320 nm, and emission wavelengths: 615 nm and 665 nm). Besides, group TO was established with 10 μl of the reaction buffer and 10 μl of the KRas G12C-GDP/Tb working solution, and the value of fluorescence intensity was directly read. A relative light unit (RLU) was calculated by the following equation: RLU=(665 nm signal/615 nm signal)×10^4; and the inhibition rate (IR) of the compound was calculated by the following equation: IR (%)=(RLUcompound−RLUcontrol)/(RLUT0−RLUcontrol)×100%. The value of IC50 was calculated by fitting a gradiently diluted concentration of the compound and the corresponding cell proliferation inhibition rate using a four-parameter method.
(In general: TR-FRET usually uses a lanthanide donor and a delayed reading to cut background.)

Data set [7] deals with NCI-H358 cells with Kras G12C mutation. In words: Cell proliferation inhibition experiment, 3D spheroid, CellTiter-Glo (Test Example 1). The format is cell-based, human. The conditions noted are these: 5 days. In outline:
(§6)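 NCI-H358 (800 cells/well) and A549 (400 cells/well) grown overnight as 3D spheroids in 2% FBS medium, then exposed to compound dilution series (3.16-fold, 0.1% DMSO) for 5 days. CellTiter-Glo luminescence read; inhibition relative to DMSO and blank, IC50 by four-parameter fit.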

Data set [8] has as its system A549 cells with Kras G12S mutation. The description is as above. The format is cell-based, human. The conditions noted are these: 5 days. The gist of the method: as §6
Setting [9] is: Homo sapiens, MIA PaCa-2, 120 h.

Where two headings read alike, the source gives them in different places.

Chain of KRas G12C (P01116-2 other isoform, or with tags, fused parts or gaps G12C): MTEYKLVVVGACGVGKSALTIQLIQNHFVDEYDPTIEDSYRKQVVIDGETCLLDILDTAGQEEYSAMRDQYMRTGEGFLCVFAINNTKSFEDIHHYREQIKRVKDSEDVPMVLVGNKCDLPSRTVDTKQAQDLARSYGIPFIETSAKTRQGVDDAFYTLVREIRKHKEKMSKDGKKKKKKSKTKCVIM

By Cmax is commonly meant the maximum level reached in the sampled fluid or tissue. Usually Tmax stands for the time at which the peak concentration occurs. In the case of `C=CC(=O)N1CCN(c2nc(=O)n(-c3c(C)ccnc3C(C)C)c3nc(-c4c(O)cccc4F)c(F)cc23)[C@@H](C)C1` [AMG 510, reference compound], in data set [1], the “Cl (clearance rate)” value stood at 73.2 mL/min/kg, the “T1/2 (half-life)” value was determined as 19.1 min and the “Vd (volume of distribution)” value came to 1.15 L/kg. For the same molecule, in data set [2], the “F (bioavailability)” value was 36.10%. Also, in data set [2] (plasma), the Cmax is on record as 1221 ng/mL and the Tmax was found to be 60 min. In addition, in data set [3] (1 mg/kg), the “Tumor Volume on Day 14 after Administration” value (from here on “Tumor Volume”) is on record as 314.28 mm^3 and the TGI is listed as 82.8%. Besides, in data set [3] (3 mg/kg), the “Tumor Volume” value is on record as 205.35 mm^3 and the TGI amounted to 109.1%. Also, in data set [3] (10 mg/kg), the “Tumor Volume” value amounted to 81.72 mm^3 and the TGI was 138.9%.
The IC50 is the concentration at which inhibition is half-maximal. In the case of `C=CC(=O)N1C[C@@H]2C(=O)N(C)c3c(c4cc(Cl)c(-c5c(O)cccc5F)nc4n(-c4c(C)ccnc4C(C)C)c3=O)N2C[C@H]1C` [Compound Z27, (2R,4aR)-3-acryloyl-11-chloro-10-(2-fluoro-6-hydroxyphenyl)-8-(2-isopropyl-4-methylpyridin-3-yl)-2,6-dimethyl-2,3,4,4a,6,8-hexahydro-1H-pyrazino[1′,2′:4,5]pyrazino[2,3-c][1,8]naphthyridin-5,7-dione], the IC50 in data set [4] (Homo sapiens, MIA PaCa-2, 2 h) turned out to be 29 nM; in data set [5] (setting [9]), 4 nM; in data set [6] it was 27 nM; in data set [7] (Homo sapiens, NCI-H358, 120 h), 2 nM; in data set [8] (Homo sapiens, A549, 120 h), 10100 nM.
Turning to `C=CC(=O)N1CCN2c3c(c(=O)n(-c4c(C)ncnc4C(C)C)c4nc(-c5c(O)cccc5F)c(F)cc34)N(C)C(=O)[C@H]2C1` (single isomer, unassigned) [Compound Z21-1], the IC50 in data set [4] is 428 nM; in data set [5], 46 nM; in data set [6], 172 nM; in data set [7] it was 27 nM; in data set [8], greater than 30000 nM.
On to `C=CC(=O)N1C[C@@H]2C(=O)N(C)c3c(c4cc(F)c(-c5c(O)cccc5F)nc4n(-c4c(C)cnn4C(C)C)c3=O)N2C[C@H]1C` (single isomer, unassigned) [Compound Z33-2], for which the IC50 in data set [4] (Homo sapiens, MIA PaCa-2, 2 h) is 238 nM; in data set [5] it was 48 nM; in data set [6], 162 nM; in data set [7] it was 34 nM; in data set [8] (Homo sapiens, A549, 120 h), greater than 30000 nM.
As for `C=CC(=O)N1CCN2c3c(c(=O)n(-c4c(C)ccnc4C(C)C)c4nc(-c5c(O)cccc5F)c(Cl)cc34)NC(=O)[C@H]2C1` [Compound Z24, (4aR)-3-acryloyl-11-chloro-10-(2-fluoro-6-hydroxyphenyl)-8-(2-isopropyl-4-methylpyridin-3-yl)-2,3,4,4a,6,8-hexahydro-1H-pyrazino[1′,2′:4,5]pyrazino[2,3-c][1,8]naphthyridin-5,7-dione], the IC50 in data set [4] (Homo sapiens, MIA PaCa-2, 2 h) was 113 nM; in data set [5] (setting [9]) it was 9 nM; in data set [6], 58 nM; in data set [7] (Homo sapiens, NCI-H358, 120 h), 3 nM; in data set [8] (Homo sapiens, A549, 120 h), 28100 nM.
The corresponding values for `C=CC(=O)N1C[C@@H]2C(=O)N(C)c3c(c4cc(C5CC5)c(-c5c(O)cccc5F)nc4n(-c4c(C)ccnc4C(C)C)c3=O)N2C[C@H]1C` [Compound Z31, (2R,4aR)-3-acryloyl-11-cyclopropyl-10-(2-fluoro-6-hydroxyphenyl)-8-(2-isopropyl-4-methylpyridin-3-yl)-2,6-dimethyl-2,3,4,4a,6,8-hexahydro-1H-pyrazino[1′,2′:4,5]pyrazino[2,3-c][1,8]naphthyridin-5,7-dione] are 206 nM, 59 nM, 151 nM, 17 nM and 9490 nM.

(Values after patent publication US12054497B2, “Substituted heterocyclic fused cyclic compound, preparation method therefor and pharmaceutical use thereof” (GENFLEET THERAPEUTICS (SHANGHAI) INC., priority 2019, dated 2024).)
